Results: PubChem BioAssay (NCI)
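Growth conditions: 96-well plates. Treatment: test compound, 48 hours, 5 concentrations. Analysis: linear interpolation between bracketing concentrations; unreached endpoints set to highest concentration. GI50 = concentration required for 50% inhibition of growth. TGI is the concentration that stops growth completely.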

Experiments:
Assay in all cases: NCI tumour cell line growth inhibition, 48 h; in the data active means GI50 below about 0.43 µM; inactive means the rest
MDA-MB-231 breast = tested on: MDA-MB-231 breast
CAKI-1 renal = tested on: CAKI-1 renal
DU-145 prostate = tested on: DU-145 prostate
SF-295 CNS = tested on: SF-295 CNS
NCI-H460 lung = tested on: NCI-H460 lung
NCI-H23 lung = tested on: NCI-H23 lung
SK-OV-3 ovarian = tested on: SK-OV-3 ovarian
CCRF-CEM leukemia = tested on: CCRF-CEM leukemia
MDA-MB-435 = tested on: MDA-MB-435
MOLT-4 leukemia = tested on: MOLT-4 leukemia
MCF7 breast = tested on: MCF7 breast
ACHN renal = tested on: ACHN renal
A498 renal = tested on: A498 renal
HOP-92 NSCLC = tested on: HOP-92 NSCLC
SF-539 CNS = tested on: SF-539 CNS
COLO 205 colon = tested on: COLO 205 colon
SNB-75 CNS = tested on: SNB-75 CNS
UO-31 renal = tested on: UO-31 renal
HCT-15 colon = tested on: HCT-15 colon
HCT-116 colon = tested on: HCT-116 colon
OVCAR-4 ovarian = tested on: OVCAR-4 ovarian
UACC-62 melanoma = tested on: UACC-62 melanoma
OVCAR-5 ovarian = tested on: OVCAR-5 ovarian
SW-620 colon = tested on: SW-620 colon
SK-MEL-28 melanoma = tested on: SK-MEL-28 melanoma
IGROV1 ovarian = tested on: IGROV1 ovarian
PC-3 prostate = tested on: PC-3 prostate
HOP-62 NSCLC = tested on: HOP-62 NSCLC
SN12C renal = tested on: SN12C renal
M14 melanoma = tested on: M14 melanoma
EKVX NSCLC = tested on: EKVX NSCLC
HCC-2998 colon = tested on: HCC-2998 colon
SF-268 CNS = tested on: SF-268 CNS
786-0 renal = tested on: 786-0 renal
NCI-H226 lung = tested on: NCI-H226 lung
SK-MEL-5 melanoma = tested on: SK-MEL-5 melanoma
K-562 leukemia = tested on: K-562 leukemia
HT29 colon = tested on: HT29 colon
OVCAR-3 ovarian = tested on: OVCAR-3 ovarian
BT-549 breast = tested on: BT-549 breast
KM12 colon = tested on: KM12 colon
SR leukemia = tested on: SR leukemia
U251 CNS = tested on: U251 CNS
OVCAR-8 ovarian = tested on: OVCAR-8 ovarian
NCI/ADR-RES ovarian = tested on: NCI/ADR-RES ovarian
MALME-3M melanoma = tested on: MALME-3M melanoma
TK-10 renal = tested on: TK-10 renal
UACC-257 melanoma = tested on: UACC-257 melanoma
A549 NSCLC = tested on: A549 NSCLC
SK-MEL-2 melanoma = tested on: SK-MEL-2 melanoma
RPMI-8226 leukemia = tested on: RPMI-8226 leukemia
LOX IMVI melanoma = tested on: LOX IMVI melanoma
SNB-19 CNS = tested on: SNB-19 CNS
HL-60(TB) leukemia = tested on: HL-60(TB) leukemia
T-47D breast = tested on: T-47D breast
RXF 393 renal = tested on: RXF 393 renal

Clc1cc(Cl)cc(N2N=C(c3cccc(Nc4ccncc4)c3)CC2c2ccc3c(c2)OCO3)c1 (stereo unspecified)
3.44 µM: TGI (HCT-15 colon)
4.72 µM: TGI (HT29 colon)
4.86 µM: TGI (K-562 leukemia)
3.36 µM: TGI (SK-MEL-28 melanoma)
2.9 µM: TGI (CAKI-1 renal)
inactive: GI50 (MDA-MB-231 breast) 1.37 µM | GI50 (CAKI-1 renal) 1.54 µM | GI50 (DU-145 prostate) 1.71 µM | GI50 (SF-295 CNS) 1.77 µM | GI50 (NCI-H460 lung) 1.76 µM | GI50 (NCI-H23 lung) 1.79 µM | GI50 (SK-OV-3 ovarian) 2.54 µM | GI50 (CCRF-CEM leukemia) 2.72 µM | GI50 (MDA-MB-435) 1.62 µM | GI50 (MOLT-4 leukemia) 1.88 µM | GI50 (MCF7 breast) 1.89 µM | GI50 (ACHN renal) 1.69 µM | GI50 (A498 renal) 1.34 µM | GI50 (HOP-92 NSCLC) 1.39 µM | GI50 (SF-539 CNS) 1.84 µM | GI50 (COLO 205 colon) 1.87 µM | GI50 (SNB-75 CNS) 1.38 µM | GI50 (UO-31 renal) 1.36 µM | GI50 (HCT-15 colon) 1.76 µM | GI50 (HCT-116 colon) 1.7 µM | GI50 (OVCAR-4 ovarian) 1.65 µM | GI50 (UACC-62 melanoma) 1.71 µM | GI50 (OVCAR-5 ovarian) 1.83 µM | GI50 (SW-620 colon) 1.67 µM | GI50 (SK-MEL-28 melanoma) 1.84 µM | GI50 (IGROV1 ovarian) 1.62 µM | GI50 (PC-3 prostate) 1.59 µM | GI50 (HOP-62 NSCLC) 1.79 µM | GI50 (SN12C renal) 1.66 µM | GI50 (M14 melanoma) 1.75 µM | GI50 (EKVX NSCLC) 1.61 µM | GI50 (HCC-2998 colon) 1.84 µM | GI50 (SF-268 CNS) 1.7 µM | GI50 (786-0 renal) 1.69 µM | GI50 (NCI-H226 lung) 1.91 µM | GI50 (SK-MEL-5 melanoma) 1.77 µM | GI50 (K-562 leukemia) 2.06 µM | GI50 (HT29 colon) 2.14 µM | GI50 (OVCAR-3 ovarian) 1.73 µM | GI50 (BT-549 breast) 1.7 µM | GI50 (KM12 colon) 1.78 µM
4.17 µM: TGI (MCF7 breast)
3.27 µM: TGI (OVCAR-3 ovarian)
18.4 µM: TGI (CCRF-CEM leukemia)
3.64 µM: TGI (HOP-62 NSCLC)
3.18 µM: TGI (OVCAR-4 ovarian) | TGI (IGROV1 ovarian) | TGI (PC-3 prostate)
3.29 µM: TGI (SW-620 colon)
3.17 µM: TGI (UACC-62 melanoma)
3.51 µM: TGI (OVCAR-5 ovarian)
2.72 µM: TGI (MDA-MB-231 breast)
3.2 µM: TGI (SF-295 CNS) | TGI (EKVX NSCLC)
4.49 µM: TGI (MOLT-4 leukemia)
2.99 µM: TGI (SNB-75 CNS)
3.34 µM: TGI (NCI-H460 lung) | TGI (SF-268 CNS)
2.67 µM: TGI (UO-31 renal)
3.35 µM: TGI (KM12 colon)
4.3 µM: TGI (NCI-H226 lung)
3.37 µM: TGI (M14 melanoma) | TGI (HCC-2998 colon)
3.21 µM: TGI (SK-MEL-5 melanoma)
3.13 µM: TGI (DU-145 prostate) | TGI (SN12C renal)
3.14 µM: TGI (786-0 renal)
3.06 µM: TGI (ACHN renal)
3.3 µM: TGI (BT-549 breast)
3.09 µM: TGI (MDA-MB-435)
3.31 µM: TGI (SF-539 CNS)
3.42 µM: TGI (HCT-116 colon)
2.82 µM: TGI (HOP-92 NSCLC)
3.88 µM: TGI (COLO 205 colon)
8.38 µM: TGI (SK-OV-3 ovarian)
3.45 µM: TGI (NCI-H23 lung)
4.54 µM: TGI (A498 renal)

COc1cc([C@@H]2c3cc4c(cc3[C@@H](Nc3ccc(C(=O)N[C@H]5CCc6cc(OC)c(OC)c(OC)c6-c6ccc(SC)c(=O)cc65)cc3)[C@H]3COC(=O)[C@H]23)OCO4)cc(OC)c1O
38.8 µM: TGI (RPMI-8226 leukemia)
19.7 µM: TGI (786-0 renal)
15.1 µM: TGI (MALME-3M melanoma) | TGI (SK-MEL-2 melanoma)
83 µM: TGI (MCF7 breast)
> 100 µM: TGI (SF-295 CNS) | TGI (SF-539 CNS) | TGI (OVCAR-8 ovarian) | TGI (HCT-15 colon) | TGI (HCT-116 colon) | TGI (TK-10 renal) | TGI (UACC-257 melanoma) | TGI (OVCAR-5 ovarian) | TGI (SK-MEL-28 melanoma) | TGI (SF-268 CNS) | TGI (NCI-H226 lung) | TGI (A549 NSCLC) | TGI (K-562 leukemia) | TGI (LOX IMVI melanoma)
19.3 µM: TGI (HOP-92 NSCLC)
14.2 µM: TGI (NCI-H460 lung)
49.1 µM: TGI (SW-620 colon)
16.1 µM: TGI (CCRF-CEM leukemia)
86.4 µM: TGI (UO-31 renal)
12.7 µM: TGI (COLO 205 colon)
17.3 µM: TGI (NCI/ADR-RES ovarian)
10.9 µM: TGI (MOLT-4 leukemia)
21.8 µM: TGI (A498 renal)
17.2 µM: TGI (UACC-62 melanoma)
15.2 µM: TGI (U251 CNS)
16.4 µM: TGI (SN12C renal)
13.4 µM: TGI (CAKI-1 renal)
22.2 µM: TGI (ACHN renal)
0.149 µM: TGI (SR leukemia)
52.2 µM: TGI (M14 melanoma)

Cc1ccc(C)c(/C=C2\CN(C(=O)OC(C)(C)C)C/C(=C\c3cc(C)ccc3C)C2=O)c1
inactive: GI50 (SR leukemia) 2.53 µM | GI50 (CAKI-1 renal) 2.89 µM | GI50 (SK-OV-3 ovarian) > 100 µM | GI50 (CCRF-CEM leukemia) 2.49 µM | GI50 (MOLT-4 leukemia) 2.78 µM | GI50 (MCF7 breast) 1.94 µM | GI50 (ACHN renal) 3.07 µM | GI50 (OVCAR-8 ovarian) 3.56 µM | GI50 (HCT-116 colon) 1.43 µM | GI50 (NCI/ADR-RES ovarian) 3.48 µM | GI50 (SNB-19 CNS) 2.68 µM | GI50 (PC-3 prostate) 2.71 µM | GI50 (HL-60(TB) leukemia) 2.52 µM | GI50 (M14 melanoma) 2.99 µM | GI50 (SF-268 CNS) 2.76 µM | GI50 (K-562 leukemia) 2.94 µM | GI50 (HT29 colon) 3.26 µM
5.34 µM: TGI (HCT-116 colon)
> 100 µM: TGI (SR leukemia) | TGI (CAKI-1 renal) | TGI (SK-OV-3 ovarian) | TGI (CCRF-CEM leukemia) | TGI (MOLT-4 leukemia) | TGI (MCF7 breast) | TGI (ACHN renal) | TGI (OVCAR-8 ovarian) | TGI (NCI/ADR-RES ovarian) | TGI (SNB-19 CNS) | TGI (PC-3 prostate) | TGI (HL-60(TB) leukemia) | TGI (M14 melanoma) | TGI (SF-268 CNS) | TGI (K-562 leukemia) | TGI (HT29 colon)

CSC12c3cc(C)n(-c4ccccc4)c3CC(C)(C)CN1C(=O)C2Oc1ccccc1 (stereo unspecified)
> 100 µM: TGI (MDA-MB-231 breast) | TGI (SR leukemia) | TGI (CAKI-1 renal) | TGI (DU-145 prostate) | TGI (SF-295 CNS) | TGI (T-47D breast) | TGI (NCI-H460 lung) | TGI (NCI-H23 lung) | TGI (CCRF-CEM leukemia) | TGI (MDA-MB-435) | TGI (MOLT-4 leukemia) | TGI (MCF7 breast) | TGI (ACHN renal) | TGI (A498 renal) | TGI (HOP-92 NSCLC) | TGI (SF-539 CNS) | TGI (COLO 205 colon) | TGI (U251 CNS) | TGI (RXF 393 renal) | TGI (SNB-75 CNS) | TGI (OVCAR-8 ovarian) | TGI (UO-31 renal) | TGI (HCT-15 colon) | TGI (HCT-116 colon) | TGI (OVCAR-4 ovarian) | TGI (UACC-62 melanoma) | TGI (NCI/ADR-RES ovarian) | TGI (UACC-257 melanoma) | TGI (SNB-19 CNS) | TGI (OVCAR-5 ovarian) | TGI (SW-620 colon) | TGI (SK-MEL-28 melanoma) | TGI (IGROV1 ovarian) | TGI (PC-3 prostate) | TGI (HOP-62 NSCLC) | TGI (SN12C renal) | TGI (M14 melanoma) | TGI (EKVX NSCLC) | TGI (HCC-2998 colon) | TGI (786-0 renal) | TGI (NCI-H226 lung) | TGI (SK-MEL-5 melanoma) | TGI (SK-MEL-2 melanoma) | TGI (K-562 leukemia) | TGI (OVCAR-3 ovarian) | TGI (RPMI-8226 leukemia) | TGI (BT-549 breast) | TGI (KM12 colon) | TGI (LOX IMVI melanoma)
86.4 µM: TGI (A549 NSCLC)
